Values joined by “and” are separate entries in the source; they are usually repeats but may differ in a detail not shown here. Equal values may be shown once. Records with an inconclusive call do not appear. *1 amine or outer side, *2 acyl side, *3 side chain or, on linkers, in order; H or OH if unused. Where a SMILES comes first, the peptide text is derived from it. Bridges are numbered along the chain shown (N, C = ends). Roman numbers before positions name the chains, in order. [ ]: non-standard residue; d: D form. Actinocin(9to1) = Cc1c2oc3c(C)ccc(C(=O)[*:1])c3nc-2c(C(=O)[*:2])c(N)c1=O; aThr = C[C@H](O)[C@H](N)C(=O)O; NMeV = CN[C@H](C(=O)O)C(C)C; Sar = CNCC(=O)O
System: MX-1 breast xenograft, nude mice, tumor weight T/C
Test: NCI In Vivo Anticancer Drug Screen. Data for tumor model Human Mammary Carcinoma MX-1 Xenograft (intrarenal inoculation) in NU/NU Swiss (nude) mice
Details: endpoint: mean tumor weight change, higher = larger tumour
Experimental: The antitumor activity of compounds was measured in mice bearing transplantable tumors. Survival or tumor size were measured and the results are expressed as the measurement made in the treated group (T) divided by the measurement made in the vehicle treated control group (C). The tumor model used in this assay is Human Mammary Carcinoma MX-1 Xenograft (intrarenal inoculation) in NU/NU Swiss (nude) mice

[1] = dose: 200.0 mg/kg/injection, schedule: Q04DX003 (sc), vehicle: saline
[2] = dose: 50.0 mg/kg/injection, schedule: Q04DX003 (sc), vehicle: saline with Tween-80

In the case of `COc1cccc2c1C(=O)c1c(O)c3c(c(O)c1C2=O)C[C@@](O)(C(=O)CO)C[C@@H]3OC1CC(N)CC(C)O1` (some centres not stated), the T/C (dose: 0.19 mg/kg/injection, schedule: Q01DX010 (sc), vehicle: water) is reported as 43 % of control, the T/C (dose: 0.37 mg/kg/injection, schedule: Q01DX010 (sc), vehicle: water) is reported as 51 % of control and the T/C (dose: 0.75 mg/kg/injection, schedule: Q01DX010 (sc), vehicle: water) is reported as 61 % of control. The T/C (dose: 1.5 mg/kg/injection, schedule: Q01DX010 (sc), vehicle: water) was 59 % of control.

In the case of `CCOC(=O)c1ccc(NN=NCCF)cc1`, the T/C (dose: 150.0 mg/kg/injection, schedule: Q04DX003 (ip), vehicle: distilled water + Tween-80 + alcohol) is reported as 107 % of control, the T/C (dose: 300.0 mg/kg/injection, schedule: Q04DX003 (ip), vehicle: distilled water + Tween-80 + alcohol) is reported as 112 % of control and the T/C (dose: 600.0 mg/kg/injection, schedule: Q04DX003 (ip), vehicle: distilled water + Tween-80 + alcohol) is reported as 55 % of control.

In the case of `CNC(=O)ON(C(C)=O)C(=O)NC`, the T/C (dose: 50.0 mg/kg/injection, schedule: Q04DX003 (sc), vehicle: saline) is reported as 69 % of control, the T/C (dose: 100.0 mg/kg/injection, schedule: Q01DX010 (sc), vehicle: water) is reported as 108 % of control and the T/C (dose: 150.0 mg/kg/injection, schedule: Q01DX010 (sc), vehicle: water) is reported as 67 % of control. For the same compound, the T/C (dose: 200.0 mg/kg/injection, schedule: Q01DX010 (sc), vehicle: water) was 85 % of control and the T/C [1] was 16 % of control.

For `COC1CC2C=C(C)/C=C/C=C/C(=O)NC(c3ccccc3)C/C=C/CCC(O)CC(=O)C2=C1O` (configuration not stated), the T/C (dose: 75.0 mg/kg/injection, schedule: Q04DX003 (sc), vehicle: Klucel (hydroxypropylcellulose) (HPC)) was 41 % of control, the T/C (dose: 150.0 mg/kg/injection, schedule: Q04DX003 (sc), vehicle: Klucel (hydroxypropylcellulose) (HPC)) was 71 % of control and the T/C (dose: 300.0 mg/kg/injection, schedule: Q04DX003 (sc), vehicle: Klucel (hydroxypropylcellulose) (HPC)) was 50 % of control.

`CC[As](=O)(O)CC` was tested, and the T/C (dose: 100.0 mg/kg/injection, schedule: Q04DX003 (sc), vehicle: saline) was 96 % of control and the T/C [1] was 88 % of control.

In the case of `Cc1c2oc3c(C)ccc(C(=O)N[C@@H]4C(=O)N[C@H](C(C)C)C(=O)N5CCC[C@H]5C(=O)N(C)CC(=O)N(C)[C@@H](C(C)C)C(=O)O[C@H]4C)c3nc-2c(C(=O)N[C@@H]2C(=O)N[C@H](C(C)C)C(=O)N3CCC[C@H]3C(=O)N(C)CC(=O)N(C)[C@@H](C(C)C)C(=O)O[C@H]2C)c(N)c1=O` (I: [aThr][dV]P[Sar][NMeV] / II: [aThr][dV]P[Sar][NMeV]; ester I:1-I:C, II:1-II:C; linker I:N-II:N via Actinocin(9to1)), the T/C (dose: 0.25 mg/kg/injection, schedule: Q04DX003 (sc), vehicle: saline) is reported as 34 % of control, the T/C (dose: 0.5 mg/kg/injection, schedule: Q04DX003 (sc), vehicle: saline) is reported as 11 % of control and the T/C (dose: 1.0 mg/kg/injection, schedule: Q04DX003 (sc), vehicle: saline) is reported as -46 % of control. For the same compound, the T/C (dose: 50.0 micrograms/kg/injection, schedule: Q01DX010 (sc), vehicle: saline) was 76 % of control, the T/C (dose: 100.0 micrograms/kg/injection, schedule: Q01DX010 (sc), vehicle: saline) was 23 % of control and 28 % of control and 33 % of control and the T/C (dose: 200.0 micrograms/kg/injection, schedule: Q01DX010 (sc), vehicle: saline) was 1 % of control and 18 % of control.

`CC(=O)Oc1ccccc1O` was tested, and the T/C (dose: 75.0 mg/kg/injection, schedule: Q04DX003 (sc), vehicle: saline + Tween-80 + alcohol) was 89 % of control, the T/C (dose: 150.0 mg/kg/injection, schedule: Q04DX003 (sc), vehicle: saline + Tween-80 + alcohol) was 117 % of control and the T/C (dose: 600.0 mg/kg/injection, schedule: Q04DX003 (sc), vehicle: saline + Tween-80 + alcohol) was 68 % of control.

`COC1C(/C=C/C(C)=O)OC2OC(C)(C)OC21` (configuration not stated) was tested, and the T/C (dose: 75.0 mg/kg/injection, schedule: Q04DX003 (sc), vehicle: suspension in saline) was 97 % of control, the T/C (dose: 150.0 mg/kg/injection, schedule: Q04DX003 (sc), vehicle: suspension in saline) was 160 % of control and the T/C (dose: 600.0 mg/kg/injection, schedule: Q04DX003 (sc), vehicle: suspension in saline) was 82 % of control. For the same compound, the T/C (dose: 1200.0 mg/kg/injection, schedule: Q04DX003 (sc), vehicle: suspension in saline) was 63 % of control.

With `C/C=C/c1cc2n(c1)C(=O)c1cc(OC3OC(C)C(NC)C(C)(O)C3O)c(C)c(O)c1NC2O` (configuration not stated) the T/C (dose: 100.0 micrograms/kg/injection, schedule: Q04DX003 (sc), vehicle: saline) was 182 % of control, the T/C (dose: 200.0 micrograms/kg/injection, schedule: Q04DX003 (sc), vehicle: saline) was 22 % of control and the T/C (dose: 400.0 micrograms/kg/injection, schedule: Q04DX003 (sc), vehicle: saline) was 91 % of control.

With `CC(C)(C)N1CC1CNC(=O)C(=O)NCC1CN1C(C)(C)C` (configuration not stated) the T/C [2] was -41 % of control and -29 % of control.

`CC[C@@H](C)[C@@H]1NC(=O)C(NC(=O)C(CC(C)C)N(C)C(=O)C2CCCN2C(=O)C(C)O)C(C)OC(=O)C(Cc2ccc(OC)cc2)N(C)C(=O)C2CCCN2C(=O)C(CC(C)C)NC(=O)C(C)C(=O)C(C(C)C)OC(=O)C[C@H]1O` (some centres not stated) was tested, and the T/C (dose: 300.0 micrograms/kg/injection, schedule: Q04DX003 (sc), vehicle: distilled water + alcohol) was 91 % of control, the T/C (dose: 600.0 micrograms/kg/injection, schedule: Q04DX003 (sc), vehicle: distilled water + alcohol) was 157 % of control and the T/C (dose: 1200.0 micrograms/kg/injection, schedule: Q04DX003 (sc), vehicle: distilled water + alcohol) was 27 % of control.

For `COC(=O)Nc1nc2ccc(C3(c4ccc(F)cc4)OCCO3)cc2[nH]1`, the T/C [2] was 100 % of control and the T/C (dose: 100.0 mg/kg/injection, schedule: Q04DX003 (sc), vehicle: saline with Tween-80) was 79 % of control.

With `O.O.[NH-]C1CCCCC1[NH-].[Pt+2]` (configuration not stated) the T/C (dose: 2.5 mg/kg/injection, schedule: Q01DX010 (sc), vehicle: dextrose) was 111 % of control, the T/C (dose: 5.0 mg/kg/injection, schedule: Q01DX010 (sc), vehicle: dextrose) was 76 % of control and 78 % of control and the T/C (dose: 10.0 mg/kg/injection, schedule: Q01DX010 (sc), vehicle: dextrose) was 55 % of control and 60 % of control. For the same compound, the T/C (dose: 20.0 mg/kg/injection, schedule: Q01DX010 (sc), vehicle: dextrose) was 26 % of control and 36 % of control.

With `CC(/C=C/c1ccccc1)=Nc1ccccc1` the T/C (dose: 150.0 mg/kg/injection, schedule: Q04DX003 (sc), vehicle: saline with Tween-80) was 71 % of control, the T/C (dose: 300.0 mg/kg/injection, schedule: Q04DX003 (sc), vehicle: saline with Tween-80) was 83 % of control and the T/C (dose: 600.0 mg/kg/injection, schedule: Q04DX003 (sc), vehicle: saline with Tween-80) was 69 % of control. The T/C (dose: 1200.0 mg/kg/injection, schedule: Q04DX003 (sc), vehicle: saline with Tween-80) was 93 % of control.

With `O=S(=O)(SC(S(=O)(=O)c1ccccc1)S(=O)(=O)c1ccccc1)c1ccccc1` the T/C (dose: 100.0 mg/kg/injection, schedule: Q04DX003 (sc), vehicle: Klucel (hydroxypropylcellulose) (HPC)) was 68 % of control, the T/C (dose: 200.0 mg/kg/injection, schedule: Q04DX003 (sc), vehicle: Klucel (hydroxypropylcellulose) (HPC)) was 42 % of control and the T/C (dose: 400.0 mg/kg/injection, schedule: Q04DX003 (sc), vehicle: Klucel (hydroxypropylcellulose) (HPC)) was 84 % of control. For the same compound, the T/C (dose: 600.0 mg/kg/injection, schedule: Q04DX003 (sc), vehicle: Klucel (hydroxypropylcellulose) (HPC)) was 100 % of control, the T/C (dose: 800.0 mg/kg/injection, schedule: Q04DX003 (sc), vehicle: Klucel (hydroxypropylcellulose) (HPC)) was 87 % of control and 98 % of control and the T/C (dose: 1600.0 mg/kg/injection, schedule: Q04DX003 (sc), vehicle: Klucel (hydroxypropylcellulose) (HPC)) was 112 % of control.

In the case of `COc1cc([C@@H]2c3cc4c(cc3[C@@H](OC3OC5CO[C@@H](c6cccs6)OC5C(O)C3O)[C@H]3COC(=O)[C@H]23)OCO4)cc(OC)c1O` (some centres not stated), the T/C (dose: 8.0 mg/kg/injection, schedule: Q01DX010 (sc), vehicle: saline) is reported as 67 % of control, the T/C (dose: 16.0 mg/kg/injection, schedule: Q01DX010 (sc), vehicle: saline) is reported as 60 % of control and the T/C (dose: 32.0 mg/kg/injection, schedule: Q01DX010 (sc), vehicle: saline) is reported as 96 % of control. For the same compound, the T/C (dose: 64.0 mg/kg/injection, schedule: Q01DX010 (sc), vehicle: saline) was 44 % of control, the T/C (dose: 66.0 mg/kg/injection, schedule: Q01DX010 (sc), vehicle: saline) was 55 % of control and the T/C (dose: 132.0 mg/kg/injection, schedule: Q01DX010 (sc), vehicle: saline) was 34 % of control. The T/C (dose: 264.0 mg/kg/injection, schedule: Q01DX010 (sc), vehicle: saline) was 40 % of control and the T/C (dose: 528.0 mg/kg/injection, schedule: Q01DX010 (sc), vehicle: saline) was 79 % of control.

`CN1c2c(nc(N)[nH]c2=O)NCC1CCNc1ccc(C(=O)NC(CCC(=O)O)C(=O)O)cc1` (configuration not stated) was tested, and the T/C (dose: 100.0 mg/kg/injection, schedule: Q01DX010 (sc), vehicle: saline) was 83 % of control, the T/C (dose: 100.0 mg/kg/injection, schedule: Q01DX010 (sc), vehicle: suspension in saline) was 60 % of control and the T/C (dose: 200.0 mg/kg/injection, schedule: Q01DX010 (sc), vehicle: saline) was 76 % of control. The T/C (dose: 400.0 mg/kg/injection, schedule: Q01DX010 (sc), vehicle: saline) was 81 % of control, the T/C (dose: 400.0 mg/kg/injection, schedule: Q01DX010 (sc), vehicle: suspension in saline) was 25 % of control and the T/C (dose: 800.0 mg/kg/injection, schedule: Q01DX010 (sc), vehicle: saline) was 62 % of control.

Source: PubChem BioAssay AID296 (DTP/NCI, 2004)
